The subject of one data set is C2C12 myotubes. The data set can be described thus: C2-ceramide recycling and insulin response in C2C12 myotubes. In kind it is cell-based, mouse.
A short description of data set [1]: CADODIAME study, subclinical diabetic macular oedema. In kind it is in vivo, human. The following applies: 1000 mg twice per day, 1 year; SD 14.
A short description of data set [2]: Low dose gliclazide and sitagliptin crossover study, mixed meal test and CGM. In kind it is in vivo, human. Conditions: 2-hour MMT after 14 days.
The next data set deals with male Wistar rats. The data set can be described thus: 30-min filament middle cerebral artery occlusion. In kind it is in vivo, rat. Conditions: 48 h after MCAO; healthy 18 points, maximal deficit 3 points.
The next data set concerns HFD C57BL/6J mice. The data set can be described thus: obesity-induced cardiac dysfunction, high-fat diet mice. In kind it is in vivo. The following applies: 10 mg/kg/day intragastric for 8 weeks.
Data set [3] is described as follows: SURPASS-2, add-on to metformin in type 2 diabetes. In kind it is in vivo, human. Conditions: TZP range over 5-15 mg; SEMA 1 mg.
In data set [4] the test system is people with T2D inadequately controlled with diet and exercise. The data set can be described thus: SURPASS-1 trial. The following applies: across TZP doses. In kind it is in vivo, human.
Data set [5] in a line: SURPASS-5, add-on to insulin glargine in type 2 diabetes. Conditions: range over 5, 10, 15 mg.
Data set [6] is described as follows: Tirzepatide single-dose PK in hepatic impairment. In kind it is in vivo, human.
Another data set has as its system C57BL/6 mice. The data set can be described thus: High-fat diet-fed mice, 8 weeks of treatment. In kind it is in vivo, mouse. Conditions: HFD mice, 10mg/kg for 8 weeks.
Data set [7] in a line: 3-year prospective observational study of quadruple oral therapy in T2DM. In kind it is in vivo, human. Conditions: empagliflozin 25 mg/day, dapagliflozin 10 mg/day.
The nature of data set [8]: EMPA-REG OUTCOME, uric acid and gout analysis. In kind it is in vivo, human.
A short description of data set [9]: VERTIS CV, analysis in older patients. In kind it is in vivo, human.
Data set [10] is described as follows: SUSTAIN 10 post hoc analysis by baseline SGLT-2i. In kind it is in vivo, human.
The nature of data set [11]: Liraglutide crossover trial, Holter monitoring and echocardiography. In kind it is in vivo, human. Conditions: 12 weeks.
In data set [12] the test system is patients with type 2 diabetes at CV risk. In words: PIONEER 6, treatment discontinuation. Details: species or system human. Conditions: in vivo.
The subject of the next data set is Arrb2-/- beta cells. In words: Incretin responses in Arrb2-/- beta cells. In kind it is cell-based, mouse.
The subject of data set [13] is mouse pancreatic beta cells. The data set can be described thus: PKA activation. The following applies: only effective from. In kind it is cell-based.
Data set [14] can be described thus: Danish registry cohort, hypoglycaemic episodes leading to hospitalisation. In kind it is in vivo, human.
The nature of data set [15]: EXPECT trial, pregnant women with type 1 diabetes. In kind it is in vivo, human. Conditions: degludec once daily or detemir 1-2 times daily, both with insulin aspart.

Where no end group is shown, it is not given here.

The values below come from PMC8408311 (Diabetologia, 2021).

For the molecule `CCCCCCCCCCCCC/C=C/[C@@H](O)[C@H](CO)NC(C)=O` [C2cer, C2-Cer], the “Effect on the insulin signal” value in the data set with C2C12 myotubes (at 25 mM glucose) is given as “inhibited completely the insulin signal”.
As to `O=S(=O)(O)c1cc(O)ccc1O` [CaD, Calcium dobesilate], in data set [1], the “Mean decrease of retinal thickness” value amounted to 2.5 μm.
Turning to `N[C@@H](CC(=O)N1CCn2c(nnc2C(F)(F)F)C1)Cc1cc(F)c(F)cc1F` [DPP4, sitagliptin], in data set [2], the “Beta cell glucose sensitivity” value is on record as 75.9 (55.7 - 96.0) pmol min^-1 m^-2mM^-1.
Regarding `OC[C@H]1O[C@@H](c2ccc(Cl)c(Cc3ccc(O[C@H]4CCOC4)cc3)c2)[C@H](O)[C@@H](O)[C@@H]1O` [EMPA, empagliflozin], the “Garcia score (neurological deficit)” value with male Wistar rats was 12.0 (9.5; 14.0) points. Also, in the data set on HFD C57BL/6J mice, the “body weight and whole-body fat” value is recorded as “Lower”; the myocardial damage result is “reduced”.
Turning to `CC[C@H](C)[C@H](NC(=O)[C@H](CC(C)C)NC(=O)[C@H](Cc1c[nH]c2ccccc12)NC(=O)[C@H](CCC(N)=O)NC(=O)[C@@H](NC(=O)[C@H](Cc1ccccc1)NC(=O)[C@H](C)NC(=O)[C@H](CCCCNC(=O)COCCOCCNC(=O)COCCOCCNC(=O)CC[C@H](NC(=O)CCCCCCCCCCCCCCCCCCC(=O)O)C(=O)O)NC(=O)[C@H](CCC(N)=O)NC(=O)[C@H](C)NC(=O)[C@@H](NC(=O)[C@H](CCCCN)NC(=O)[C@H](CC(=O)O)NC(=O)[C@H](CC(C)C)NC(=O)C(C)(C)NC(=O)[C@@H](NC(=O)[C@H](CO)NC(=O)[C@H](Cc1ccc(O)cc1)NC(=O)[C@H](CC(=O)O)NC(=O)[C@H](CO)NC(=O)[C@@H](NC(=O)[C@H](Cc1ccccc1)NC(=O)[C@@H](NC(=O)CNC(=O)[C@H](CCC(=O)O)NC(=O)C(C)(C)NC(=O)[C@@H](N)Cc1ccc(O)cc1)[C@@H](C)O)[C@@H](C)O)[C@@H](C)CC)[C@@H](C)CC)C(C)C)C(=O)N[C@@H](C)C(=O)NCC(=O)NCC(=O)N1CCC[C@H]1C(=O)N[C@@H](CO)C(=O)N[C@@H](CO)C(=O)NCC(=O)N[C@@H](C)C(=O)N1CCC[C@H]1C(=O)N1CCC[C@H]1C(=O)N1CCC[C@H]1C(=O)N[C@@H](CO)C(N)=O` [TZP, Tirzepatide], in [3], the Diarrhoea is reported as 13-16%, the Nausea is 17-22% and the Vomiting is on record as 6-10%. In data set [4], the Diarrhoea was 12-14% and the Nausea is recorded as 12-18%. Also, in [5], the “Diarrhoea, patients reporting” value is on record as 12-21%; the “Incidence of hypoglycaemia (blood glucose <3.0 mmol/L) or severe hypoglycaemia” value is 14-19%; the “Nausea, patients reporting” value is given as 13-18%; the “Vomiting, patients reporting” value is reported as 7-13%.
Regarding `CC[C@H](C)[C@H](NC(=O)[C@H](CC(C)C)NC(=O)[C@H](Cc1c[nH]c2ccccc12)NC(=O)[C@H](CCC(N)=O)NC(=O)[C@@H](NC(=O)[C@H](Cc1ccccc1)NC(=O)[C@H](C)NC(=O)[C@H](CCCCNC(=O)COCCOCCNC(=O)COCCOCCNC(=O)CC[C@H](NC(=O)CCCCCCCCCCCCCCCCCCC(=O)O)C(=O)O)NC(=O)[C@H](CCC(N)=O)NC(=O)[C@H](C)NC(=O)[C@@H](NC(=O)[C@H](CCCCN)NC(=O)[C@H](CC(=O)O)NC(=O)[C@H](CC(C)C)NC(=O)C(C)(C)NC(=O)[C@@H](NC(=O)[C@H](CO)NC(=O)[C@H](Cc1ccc(O)cc1)NC(=O)[C@H](CC(=O)O)NC(=O)[C@H](CO)NC(=O)[C@@H](NC(=O)[C@H](Cc1ccccc1)NC(=O)[C@@H](NC(=O)CNC(=O)[C@H](CCC(=O)O)NC(=O)C(C)(C)NC(=O)[C@@H](N)Cc1ccc(O)cc1)[C@@H](C)O)[C@@H](C)O)[C@@H](C)CC)[C@@H](C)CC)C(C)C)C(=O)N[C@@H](C)C(=O)NCC(=O)NCC(=O)N1CCC[C@H]1C(=O)N[C@@H](CO)C(=O)N[C@@H](CO)C(=O)NCC(=O)N[C@@H](C)C(=O)N1CCC[C@H]1C(=O)N1CCC[C@H]1C(=O)N1CCC[C@H]1C(=O)N[C@@H](CO)C(N)=O` [Tirzepatide], the median tmax result in data set [6] (across all groups) is reported as “no change”. The “geometric least squares mean t1/2” value in data set [6] (control and hepatic impairment groups) is reported as “similar”.
For the molecule `COc1ccc(/C=C/C(=O)c2c(-c3ccccc3)c3ccccc3[nH]c2=O)cc1` [ceranib-2], in the data set with C2C12 myotubes (2 h treatment, ceranib-2 alone), the “Accumulation in total endogenous Cer content” value is reported as 50%.
For `OC[C@H]1O[C@@H](c2ccc(Cl)c(Cc3ccc(O[C@H]4CCOC4)cc3)c2)[C@H](O)[C@@H](O)[C@@H]1O` [empagliflozin, Empagliflozin], in the data set on C57BL/6 mice, the Body weight was found to be 40 ± 0.9 g and the Fat mass is 8.5 ± 1.5 g. In data set [7], the “Change in body weight at 3 years” value is on record as -4.5 ± 2.5 kg and the “Change in fasting plasma glucose at 3 years” value is on record as -59.3 ± 53.3 mg/dL. Also, the “Hazard ratio (95% CI) for gout flare or initiation of a drug for gout vs placebo” value in [8] (pooled empagliflozin) is listed as 0.67 (0.53, 0.85). The “Patients with a gout flare or initiation of a drug for gout” value in data set [8] (pooled empagliflozin, patients not on UA lowering medication at baseline) worked out at 3.6%. Moreover, in data set [8] (week 52, baseline UA levels ≥6 mg/dL), the “Serum uric acid, adjusted mean (95% CI) treatment difference vs placebo” value is reported as −0.46 (−0.55, −0.38) mg/dL. For the same molecule, the “Serum uric acid, adjusted mean (95% CI) treatment difference vs placebo” value in [8] (week 52, pooled 10 and 25 mg/day) is recorded as −0.37 (−0.42, −0.31) mg/dL.
In the case of `CCOc1ccc(Cc2cc([C@]34OC[C@](CO)(O3)[C@@H](O)[C@H](O)[C@H]4O)ccc2Cl)cc1` [ertugliflozin], the “Incidence of hypovolemia AEs” value in data set [9] (patients ≥65 yrs) was 5.3%; in [9] (patients ≥75 yrs) it was 6.9%.
With `CCCCCCCCCCCCCCCC(=O)N[C@@H](CCC(=O)NCCCC[C@H](NC(=O)[C@H](C)NC(=O)[C@H](C)NC(=O)[C@H](CCC(N)=O)NC(=O)CNC(=O)[C@H](CCC(=O)O)NC(=O)[C@H](CC(C)C)NC(=O)[C@H](Cc1ccc(O)cc1)NC(=O)[C@H](CO)NC(=O)[C@H](CO)NC(=O)[C@@H](NC(=O)[C@H](CC(=O)O)NC(=O)[C@H](CO)NC(=O)[C@@H](NC(=O)[C@H](Cc1ccccc1)NC(=O)[C@@H](NC(=O)CNC(=O)[C@H](CCC(=O)O)NC(=O)[C@H](C)NC(=O)[C@@H](N)Cc1cnc[nH]1)[C@@H](C)O)[C@@H](C)O)C(C)C)C(=O)N[C@@H](CCC(=O)O)C(=O)N[C@@H](Cc1ccccc1)C(=O)N[C@H](C(=O)N[C@@H](C)C(=O)N[C@@H](Cc1c[nH]c2ccccc12)C(=O)N[C@@H](CC(C)C)C(=O)N[C@H](C(=O)N[C@@H](CCCNC(=N)N)C(=O)NCC(=O)N[C@@H](CCCNC(=N)N)C(=O)NCC(=O)O)C(C)C)[C@@H](C)CC)C(=O)O` [liraglutide], the “Premature treatment discontinuations due to AEs” value in [10] (with SGLT-2i) was 7.2%; in data set [10] (without SGLT-2i) it was 6.4%. Also, the “Impairment of diastolic filling (e')” value in data set [11] came out at 10%.
Consider `CC[C@H](C)[C@H](NC(=O)[C@H](Cc1ccccc1)NC(=O)[C@H](CCC(=O)O)NC(=O)[C@H](CCCCNC(=O)COCCOCCNC(=O)COCCOCCNC(=O)CC[C@H](NC(=O)CCCCCCCCCCCCCCCCC(=O)O)C(=O)O)NC(=O)[C@H](C)NC(=O)[C@H](C)NC(=O)[C@H](CCC(N)=O)NC(=O)CNC(=O)[C@H](CCC(=O)O)NC(=O)[C@H](CC(C)C)NC(=O)[C@H](Cc1ccc(O)cc1)NC(=O)[C@H](CO)NC(=O)[C@H](CO)NC(=O)[C@@H](NC(=O)[C@H](CC(=O)O)NC(=O)[C@H](CO)NC(=O)[C@@H](NC(=O)[C@H](Cc1ccccc1)NC(=O)[C@@H](NC(=O)CNC(=O)[C@H](CCC(=O)O)NC(=O)C(C)(C)NC(=O)[C@@H](N)Cc1cnc[nH]1)[C@@H](C)O)[C@@H](C)O)C(C)C)C(=O)N[C@@H](C)C(=O)N[C@@H](Cc1c[nH]c2ccccc12)C(=O)N[C@@H](CC(C)C)C(=O)N[C@H](C(=O)N[C@@H](CCCNC(=N)N)C(=O)NCC(=O)N[C@@H](CCCNC(=N)N)C(=O)NCC(=O)O)C(C)C` [oral semaglutide, semaglutide], for which the “patients who stopped at least once due to an AE” value in data set [12] is on record as 27%.
Consider “glucagon-like peptide 1 (HAEGTFTSDVSSYLEGQAAKEFIAWLVKGR; ends and bridges not checked; UniProt P01275 98-127, looked up) [GLP-1]”, for which the “Reduction of ERK1/2 activation in Arrb2-/- beta cells” value with Arrb2-/- beta cells is reported as ~ 50%.
With “glucose-dependent insulinotropic polypeptide (YAEGTFISDYSIAMDKIHQQDFVNWLLAQKGKKNDWKHNITQ; Gastric inhibitory polypeptide; UniProt P09681 52-93, looked up) [GIP]”, the “Lowest effective concentration on PKA activation and insulin secretion” value in data set [13] is ≥ 1 nM. Further, the “Reduction of insulin secretion in Arrb2-/- beta cells” value with Arrb2-/- beta cells is on record as ~ 50%.
With human insulin, the “HR for hypoglycaemic episodes leading to hospitalisation” value worked out at 1.84 in [14] (combination human insulin) and 1.38 in data set [14] (intermediate-acting human insulin).
For the molecule insulin detemir, in data set [15], the “Estimated mean HbA1c prior to delivery” value was 6.34%.
